Measurements as given in US8299048B2, “Hexahydrocyclopentyl[f]indazole sulfonamides and derivatives thereof as selective glucocorticoid receptor modulators” (Merck Sharp & Dohme Corp., priority 2008, dated 2012).
pEC50: −log10 of the molar value.

How the values were obtained:
human GR [1] = target: T1, human GR (Homo sapiens, UniProt P04150); experiment: Trans-Activation Modulation of Glucocorticoid Receptor (GRAMMER), MMTV-LUC reporter, agonist mode; format: cell-based; parameters: endogenous in cells; conditions: for Emax: A549, A549 cells, maximum activity, read-out: Transactivation A549 Cells GRAMMER Emax; for pEC50: A549 cells, inflection point, read-out: Transactivation A549 Cells GRAMMER IP
T1 sequence (P04150 1-777): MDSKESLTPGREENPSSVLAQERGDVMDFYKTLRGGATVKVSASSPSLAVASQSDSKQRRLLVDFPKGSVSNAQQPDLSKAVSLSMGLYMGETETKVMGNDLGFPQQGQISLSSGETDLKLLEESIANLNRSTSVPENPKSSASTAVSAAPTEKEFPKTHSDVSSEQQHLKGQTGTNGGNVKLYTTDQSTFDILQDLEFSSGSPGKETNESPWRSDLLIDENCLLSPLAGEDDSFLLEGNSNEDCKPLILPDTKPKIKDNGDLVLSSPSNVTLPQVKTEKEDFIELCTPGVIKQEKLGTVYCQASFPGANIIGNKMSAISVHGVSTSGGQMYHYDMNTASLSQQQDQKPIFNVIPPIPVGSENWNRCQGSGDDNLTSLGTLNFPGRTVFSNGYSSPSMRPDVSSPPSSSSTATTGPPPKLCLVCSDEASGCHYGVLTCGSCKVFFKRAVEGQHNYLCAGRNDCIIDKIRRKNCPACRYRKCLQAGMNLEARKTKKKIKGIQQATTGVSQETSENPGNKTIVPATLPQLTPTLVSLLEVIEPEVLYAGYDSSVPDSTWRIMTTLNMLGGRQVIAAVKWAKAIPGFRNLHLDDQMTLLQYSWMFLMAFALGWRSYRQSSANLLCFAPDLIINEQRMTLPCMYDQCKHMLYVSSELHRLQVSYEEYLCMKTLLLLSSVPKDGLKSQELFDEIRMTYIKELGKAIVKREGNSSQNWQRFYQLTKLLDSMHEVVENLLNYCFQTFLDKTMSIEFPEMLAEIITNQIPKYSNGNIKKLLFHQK
Method in brief: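 Readout is luciferase from a modified MMTV LTR promoter after 24 h compound exposure alongside 10 nM dexamethasone (100% activity reference), DMSO ≤1%.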

human GR [2] = target: T1, human GR; experiment: Transrepression Assay (GITAR), TNFα-β-lactamase reporter in U937 cells; format: cell-based; parameters: U937 cells contain an endogenous glucocorticoid receptor (GR); endogenous in cells; host or cells: U937 cells stably transfected with the TNF-alpha promoter/beta-lactamase reporter; conditions: for GITAR > GRAMM % SEP: GITAR Emax minus GRAMMER Emax; for pEC50: U937 cells, inflection point, read-out: Transrepression U937 Cells GITAR IP
Method in brief: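 Stable TNF-α-promoter/β-lactamase U937 line, endogenous GR; 50,000 cells/well. Cmpd 30–45 min 37 °C → PMA 5 ng/ml + LPS 100 ng/ml final, 37 °C ~18 hr → CCF2-AM 70–90 min RT. 100 nM dex = 100%.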

[3] = U-937, U937 cells, maximum activity, read-out: Transrepression U937 Cells GITAR Emax
[4] = U-937, activity repressed by 100 nM dexamethasone alone set as 100%, read-out: maximal activity in the transrepression (GITAR) assay

| Structure (SMILES) | Emax (human GR [1]) [%] | pEC50 (human GR [1]) | GITAR > GRAMM % SEP (human GR [2]) [%] | pEC50 (human GR [2]) | Emax (human GR [2]; [3]) [%] | Emax (human GR [2]; [4]) [%] |
| --- | --- | --- | --- | --- | --- | --- |
| COCCN(C[C@H]1CCC2=Cc3c(cnn3-c3ccc(F)cc3)C[C@@]21C)S(=O)(=O)c1ccccc1F [Example 94, 2-fluoro-N-{[(4αR,5S)-1-(4-fluorophenyl)-4α-methyl-1,4,4α,5,6,7-hexahydrocyclopenta[f]indazol-5-yl]methyl}-N-(2-methoxyethyl)benzenesulfonamide] | 43.9 | 6.37 | 31.6 | 6.38 | 75.5 | > 5 |
| C[C@]12Cc3cnn(-c4ccc(F)cc4)c3C=C1CC[C@@H]2CN(CCO)S(=O)(=O)c1ccccc1-c1ccccc1 [Example 84, N-{[(4αR,5S)-1-(4-fluorophenyl)-4α-methyl-1,4,4α,5,6,7-hexahydrocyclopenta[f]indazol-5-yl]methyl}-N-(2-hydroxyethyl)biphenyl-2-sulfonamide] | 19.7 | 6.35 | 66.3 | 6.10 | 86 | > 5 |
| C[C@]12Cc3cnn(-c4ccc(F)cc4)c3C=C1CC[C@@H]2CN(CCO)S(=O)(=O)c1ccc(Oc2cccc(Cl)c2C#N)cc1 [Example 69, 4-(3-chloro-2-cyanophenoxy)-N-{[(4αR,5S)-1-(4-fluorophenyl)-4α-methyl-1,4,4α,5,6,7-hexahydrocyclopenta[f]indazol-5-yl]methyl}-N-(2-hydroxyethyl)benzenesulfonamide] | 12.6 | 6.07 | 22.2 | 5.60 | 34.8 | > 5 |
| C[C@]12Cc3cnn(-c4ccc(F)cc4)c3C=C1CC[C@@H]2CN(CCO)S(=O)(=O)c1ccc(Oc2ccccn2)cc1 [Example 74, N-{[(4αR,5S)-1-(4-fluorophenyl)-4α-methyl-1,4,4α,5,6,7-hexahydrocyclopenta[f]indazol-5-yl]methyl}-N-(2-hydroxyethyl)-4-(pyridin-2-yloxy)benzenesulfonamide] | 34.1 | 5.99 | 9.9 | 5.94 | 44.1 | > 5 |
| C[C@]12Cc3cnn(-c4ccc(F)cc4)c3C=C1CC[C@@H]2CN(CC1CC1)S(=O)(=O)c1ccccc1F [Example 2, N-(cyclopropylmethyl)-2-fluoro-N-{[(4αR,5S)-1-(4-fluorophenyl)-4α-methyl-1,4,4α,5,6,7-hexahydrocyclopenta[f]indazol-5-yl]methyl}benzenesulfonamide] | 50.5 | 6.66 | – | 6.59 | 73.3 | > 5 |
| C[C@]12Cc3cnn(-c4ccc(F)cc4)c3C=C1CC[C@@H]2CN(CCc1ccccc1F)S(=O)(=O)Cc1cccc(C(F)(F)F)c1 [Example 88, N-[2-(2-fluorophenyl)ethyl]-N-{[(4αR,5S)-1-(4-fluorophenyl)-4α-methyl-1,4,4α,5,6,7-hexahydrocyclopenta[f]indazol-5-yl]methyl}-1-[3-(trifluoromethyl)phenyl]methanesulfonamide] | 25.3 | 6.21 | 32.4 | 6.19 | 57.7 | > 5 |
| C[C@]12Cc3cnn(-c4ccc(F)cc4)c3C=C1CC[C@@H]2CN(CC1CC1)S(=O)(=O)c1ccccc1C(F)(F)F [Example 4, N-(cyclopropylmethyl)-N-{[(4αR,5S)-1-(4-fluorophenyl)-4α-methyl-1,4,4α,5,6,7-hexahydrocyclopenta[f]indazol-5-yl]methyl}-2-(trifluoromethyl)benzenesulfonamide] | 16.9 | 6.53 | 36.2 | 6.59 | 53.1 | > 5 |
| C[C@]12Cc3cnn(-c4ccc(F)cc4)c3C=C1CC[C@@H]2CN(CCc1ccccc1F)S(=O)(=O)CC(F)(F)F [Example 89, 2,2,2-trifluoro-N-[2-(2-fluorophenyl)ethyl]-N-{[(4αR,5S)-1-(4-fluorophenyl)-4α-methyl-1,4,4α,5,6,7-hexahydrocyclopenta[f]indazol-5-yl]methyl}ethanesulfonamide] | 81.4 | 6.92 | 14.3 | 6.86 | 95.6 | > 5 |

Continued by rising pEC50 (human GR [1]), values first:

| Emax (human GR [1]) [%] | pEC50 (human GR [1]) | GITAR > GRAMM % SEP (human GR [2]) [%] | pEC50 (human GR [2]) | Emax (human GR [2]; [3]) [%] | Emax (human GR [2]; [4]) [%] | Structure (SMILES) |
| --- | --- | --- | --- | --- | --- | --- |
| 7.5 | 5.88 | 64.3 | 5.71 | 71.8 | > 5 | C[C@]12Cc3cnn(-c4ccc(F)cc4)c3C=C1CC[C@@H]2CN(CCO)S(=O)(=O)c1ccc(Oc2ccccc2)cc1 [Example 79, N-{[(4αR,5S)-1-(4-fluorophenyl)-4α-methyl-1,4,4α,5,6,7-hexahydrocyclopenta[f]indazol-5-yl]methyl}-N-(2-hydroxyethyl)-4-phenoxybenzenesulfonamide] |
| 10 | 6.02 | 22.9 | 6.12 | 32.9 | > 5 | C[C@]12Cc3cnn(-c4ccc(F)cc4)c3C=C1CC[C@@H]2CN(CCO)S(=O)(=O)c1cccc(C#N)c1 [Example 68, 3-cyano-N-{[(4αR,5S)-1-(4-fluorophenyl)-4α-methyl-1,4,4α,5,6,7-hexahydrocyclopenta[f]indazol-5-yl]methyl}-N-(2-hydroxyethyl)benezenesulfonamide] |
| 17.9 | 6.05 | 25.7 | 5.95 | 43.6 | > 5 | Cc1ccccc1S(=O)(=O)N(CCO)C[C@H]1CCC2=Cc3c(cnn3-c3ccc(F)cc3)C[C@@]21C [Example 77, N-{[(4αR,5S)-1-(4-fluorophenyl)-4α-methyl-1,4,4α,5,6,7-hexahydrocyclopenta[f]indazol-5-yl]methyl}-N-(2-hydroxyethyl)-2-methylbenzenesulfonamide] |
| 41.6 | 6.30 | 26.9 | 6.31 | 68.5 | > 5 | C[C@]12Cc3cnn(-c4ccc(F)cc4)c3C=C1CC[C@@H]2CN(CCc1ccccc1Cl)S(=O)(=O)c1ccccc1F [Example 92, N-[2-(2-chlorophenyl)ethyl]-2-fluoro-N-{[(4αR,5S)-1-(4-fluorophenyl)-4α-methyl-1,4,4α,5,6,7-hexahydrocyclopenta[f]indazol-5-yl]methyl}benzenesulfonamide] |
| 14.4 | 6.35 | 14.4 | 6.32 | 28.8 | > 5 | C[C@]12Cc3cnn(-c4ccc(F)cc4)c3C=C1CC[C@@H]2CN(CCO)S(=O)(=O)Cc1ccccc1 [Example 75, N-{[(4αR,5S)-1-(4-fluorophenyl)-4α-methyl-1,4,4α,5,6,7-hexahydrocyclopenta[f]indazol-5-yl]methyl}-N-(2-hydroxyethyl)-1-phenylmethanesulfonamide] |
| 25.4 | 6.44 | 56.0 | 6.44 | 81.4 | > 5 | COC(=O)c1ccccc1S(=O)(=O)N(CCO)C[C@H]1CCC2=Cc3c(cnn3-c3ccc(F)cc3)C[C@@]21C [Example 73, methyl 2-{[{[(4αR,5S)-1-(4-fluorophenyl)-4α-methyl-1,4,4α,5,6,7-hexahydrocyclopenta[f]indazol-5-yl]methyl}(2-hydroxyethyl)amino]sulfonyl}benzoate] |
| 65.1 | 6.64 | 20.0 | 6.67 | 85.1 | > 5 | CCCS(=O)(=O)N(CCc1ccccc1F)C[C@H]1CCC2=Cc3c(cnn3-c3ccc(F)cc3)C[C@@]21C [Example 87, N-[2-(2-fluorophenyl)ethyl]-N-{[(4αR,5S)-1-(4-fluorophenyl)-4α-methyl-1,4,4α,5,6,7-hexahydrocyclopenta[f]indazol-5-yl]methyl}propane-1-sulfonamide] |
